Experimental data published in patent US6582899B1, “Methods for identifying agents that cause a lethal phenotype, and agents thereof” (Deltagen Proteomics, Inc., priority 2000, dated 2003).
Where no end group is shown, it is not given here.

How the values were obtained:
[1] = test system: HT29 colon cancer cells; assay: HT29 floater assay (negative selection); assay type: cell-based; settings: for level of floaters relative to background: Sort VI clones, FIG. 10
Experimental: HT29 cells were tested for feasibility in the floater cell assay as follows. Briefly, six flasks were inoculated with 6.25×10^5 HT29 cells/flask on Day 0. On Day 1, after the cells had been allowed to adhere to the solid support, two of these flasks were infected with retroviral supernatant containing the retroviral vector pVT324, which includes a selectable drug resistant marker (e.g. neomycin), and which constitutively expresses a green fluorescent protein. Of the remaining four flasks, two were mock infected (i.e. exposed to all of the same reagents/conditions as flasks 1 and 2, minus the retrovirus, see “Example 3C”) and two were left undisturbed. On Day 2, this procedure was repeated (i.e. a double infection). On Day 3 (and subsequently on Day 5) one flask was selected from each of the three groups and processed by separating and counting the floater and adherent cell populations. In the case of the floater cell population, the media was collected, centrifuged at 200×g for 10 minutes, and resuspended in PBS prior to removing a sample for counting on a hemocytometer. For the adherent cell population, cells were first removed from the flask by trypsinization, centrifuged, and then processed for analysis in a fashion analogous to the floater cells. To determine the inherent background level of floater cells present in the population, the ratio of the number of floater cells to the total number of cells (adherent cells+floater cells) was analyzed on both the Day 3 and Day 5 flasks that had not been manipulated. These numbers were compared with the analogous numbers taken from infected and mock-infected flasks to determine whether the retrovirus or transfection procedures altered background floater rates. To determine the susceptibility of HT29 cells to retroviral infection, the fraction of cells that expressed GFP in pVT324 infected flasks was calculated using flow cytometry.
Twenty T175 flasks were seeded with 2.2×10^6 HT29 cells/flask in McCoy's 5A media (Gibco BRL) modified with 10% FBS. On Day 1, each flask was infected (4 μg/ml polybrene, 50% volume) with a retroviral supernatant containing a commercially obtained brain cDNA library (“Example Three” above). On Day 2 the media was changed. On Day 3 both the floater and adherent cell populations were collected (separately) from the twenty flasks. Approximately 652,500 floaters were isolated from a theoretical background of 4.2×10^7 adherents (1.5% floaters) and frozen down for future studies. […] Additional floater cells were then collected Day 5, where the collection and counting procedures were repeated and some 7.8×10^6 floaters and 7.6×10^8 adherents were counted (1.03% floaters). […] The floater populations of Days 3 and 5 were then combined and readied for a genomic DNA prep using a QIAamp kit (Qiagen) following standard procedures. Briefly, some 9×10^6 floater cells in PBS were lysed to release gDNA. This material was passed over a QIAamp column that was then washed several times to remove protein and RNA contaminants. Twenty-seven micrograms of genomic DNA were then eluted from the columns with dH2O and treated with RNAse A to eliminate any RNA contamination. This gDNA was then subjected to PCR procedures to amplify the library sequences encoded therein. […]

[2] = test system: HS294T cells; assay: Ethidium homodimer/Syto16 staining for cell death and nuclear morphology; assay type: cell-based
Experimental: (§1) Two cell lines, WM35 and HS294T, were plated out (50,000 cells per well, 24 well plate) and allowed to adhere. After 24 hours, the cells were treated for 4 hours with varying concentrations (5-80 μM) of Cisplatin (cis-platinum (II) diammine dichloride), a well-known chemotherapeutic agent that induces apoptosis. […] Adherent cell populations were then lifted from the solid support by trypsinization, centrifuged (400×g), and resuspended in PBS (0.125 ml). To observe the nuclear morphology and percent cell death in the WM35 and HS294T cell lines, cells from both floater and adherent populations were stained concurrently with Syto16 and ethidium homodimer (125 ul of cell suspension+2.5 ul 62.5 uM Syto16+[…] 100 ug/ml ethidium homodimer, 10 minutes at 37° C.). Ethidium homodimer is a membrane impermeant compound that fluoresces in the 617 nm range when it is intercalated with chromosomal DNA. Thus, in a mixed cell population containing both living and dead/dying cells, only those cells whose membranes have been compromised will stain with ethidium homodimer. In contrast, Syto 16 (Molecular Probes) is a membrane permeant dye that fluoresces in the 518 nm range when associated with chromosomal DNA. Together, these two dyes can be used to observe and distinguish the nuclear morphology in a population containing both living and dead/dying cells.

[3] = test system: WM35 cells; assay: as above; assay type: cell-based
Experimental: as §1

[4] = test system: WM35 (melanoma) cells; assay: Caspase-3 fluorescent substrate (Rhodamine 123-YVAD) and PI staining of floater cells, FACS; assay type: cell-based; settings: PI-minus floater cells, 15 μg/ml, 18-24 hours after induction
Experimental: WM35 cells were passed one day prior to induction of apoptosis and incubated for 24 hrs to allow the cells to attach to the substrate. The media was subsequently removed, the remaining adherent cells washed 1× with PBS, and subsequently exposed to Cisplatin (15 μg/ml) in fresh media. Eighteen to twenty-four hours after the induction of apoptosis, the floater cell population was collected, pelleted by centrifugation (400×g), and resuspended at 3×10^6 cells/ml in PBS. Samples were then split into four groups: (1) uninduced minus Rhodamine 123-YVAD (substrate), (2) uninduced plus substrate, (3) induced minus substrate, and (4) induced plus substrate. For samples exposed to Rhodamine 123-YVAD substrate, 50 ul of a pre-warmed (37° C.) cell suspension was combined with 25 ul of a stock substrate solution (Cellprobe). Samples were incubated for 60 minutes at 37° C. and then placed on ice prior to FACS analysis. In addition to caspase-3 staining, a replicate of each sample was stained with propidium iodide to determine the percentage of cells within the population whose membranes had been compromised and the overlap between PI and caspase-3 staining. […] Emission spectra were read at 515-535 nm wavelength using the FL1 (PMT2) 525 nm blue filter.

[5] = test system: T47D cells; assay: Kill curve in T47D cells (cell number after 5 days); assay type: cell-based
Experimental: Approximately 250,000 cells were seeded into each well of a six well plate. Cells were then grown in media containing camptothecin of varying concentrations (0-10 uM). After 5 days, the number of cells remaining in each of the camptothecin-treated wells was compared with untreated controls. From these experiments, it was determined that camptothecin concentrations ranging from 1-4 nM had no effect on T47D cell number over the course of the 5 days of treatment. […] In order to determine whether this level of treatment is concomitantly increasing the number of floaters in the population, several flasks are seeded with T47D cells and then treated with 1-4 nM concentrations of camptothecin. After a period of three to five days, the media is collected and the number of floater cells are counted and compared to the total number of cells in the flask (floaters+adherents).

[6] = test system: ecdysone receptor (pVgRXR); assay: Induction of GFP fluorescence from ecdysone-regulated vector pBIGFII in ECR293 cells; assay type: cell-based; settings: 5 μM, cells containing pBIGFII and pVgRXR
From the text: As an alternative to the constitutive pCLMFG vector, an inducible construct that can be regulated by ecdysone was constructed as follows. The PmII/XhoI fragment from pVT324 was inserted into the MCS of the PIND vector (Invitrogen). This product was then digested with BgIII, blunt-ended and inserted into a pBabe-K-ras vector (pVT313-based) that had been digested with BamHI/XhoI and blunted (Klenow Fragment). The resulting vector was designated pBabe-Forward-1. The XbaI fragment of pVT324 was then inserted into the compatible site of pBabe-Forward-1. The resulting vector was designated pBIGFII. Vector pBIGFII was subsequently transfected into cells (ECR293, Invitrogen) that contain an endogenous copy of the ecdysone receptor (pVgRXR).

[7] = test system: HuVECs 9F0293 cells; assay: Time course of detachment and PI staining of HuVECs (9F0293); assay type: cell-based, Human; settings: 2 ug/ml
Experimental: To determine the time course in which dead and/or dying HuVECs detach from the solid support in response to a cytotoxic agent, 9F0293 cells were plated and subsequently treated with puromycin (2 ug/ml). Both floater and adherent cell populations were then collected at varying times (t=4, 7, 9, 16, 20, and 24 hours) and analyzed to determine (a) the percent PI^+ cells in the floater population and (b) the fraction of cells which became floaters. […] The fraction of floaters that stained with PI (PI^+ population) increased with time.

[8] = test system: HT29 cells; assay: Induction of apoptosis in HT29 cells (detachment, nuclear morphology); assay type: cell-based; settings: after 48 hours of treatment
[9] = target: epitope in the mitochondrial membrane that is exposed only in cells that are undergoing apoptosis (Jurkat cells, permeabilized with digitonin); assay: flow cytometry, digitonin-permeabilized Jurkat cells, 0 hours in anti-FAS antibody
[10] = target: epitope in the mitochondrial membrane that is exposed only in cells that are undergoing apoptosis (Jurkat cells, permeabilized with digitonin); assay: flow cytometry, digitonin-permeabilized Jurkat cells, 21 hours in anti-FAS antibody (1 ug/ml)
[11] = floater population, 5-80 μM for 4 hours, 18-24 hrs later

0328: cytotoxic agent isolated from clone 0328, SEQ ID NO: 23 (XXAVAWLGSTGMTCGAQRLRSLR; X: residue not identified in the source) [compound 0328]
level of floaters relative to background [1]: increased levels of floaters that were statistically significant relative to background | floater rate ([1]; individual clone reintroduced into HT29 cells): 2%

N.N.[Cl-].[Cl-].[Pt+2] [Cisplatin, cis-platinum (II) diammine dichloride]
ethidium homodimer staining of adherent cell population ([2]; adherent population): < 10% | cells showing condensed or fragmented nuclei ([2]; ethidium homodimer stained floater cells, fluorescent microscopy): < 20% | floater cells stained with ethidium homodimer [2, 11]: greater than 50% | ethidium homodimer staining of adherent cell population ([3]; adherent population): < 10% | ethidium homodimer staining of floaters [3, 11]: 45-50% | condensed or fragmented nuclei in floaters ([3]; floaters, higher concentrations): 40-50% | caspase-3 positive cells [4]: 94.6%

CC[C@@]1(O)C(=O)OCc2c1cc1n(c2=O)Cc2cc3ccccc3nc2-1 [camptothecin]
cell number relative to the untreated control ([5]; 10 nM, 5 days): roughly one third | concentrations with no effect on cell number ([5]; 5 days of treatment): 1 to 4 nM

CC(C)CC[C@@H](O)[C@](C)(O)[C@H]1CC[C@@]2(O)C3=CC(=O)[C@@H]4C[C@@H](O)[C@@H](O)C[C@]4(C)[C@H]3CC[C@]12C [ponesterone A]
increase of the level of fluorescence [6]: approximately thirty

COc1ccc(C[C@H](N)C(=O)N[C@H]2[C@@H](O)[C@H](n3cnc4c(N(C)C)ncnc43)O[C@@H]2CO)cc1 [puromycin]
time point at which the majority of cells detached [7]: 16 h | floater cells in the PI+ gate ([7]; by 20 hours): nearly all

CSc1ccc(/C=C2/C(C)=C(CC(=O)O)c3cc(F)ccc32)cc1 [sulindac sulfide]
detachment and apoptotic morphology [8]: majority of the cells had detached from the dish and showed typical apoptotic morphology

Apo2.7 monoclonal antibody (Coulter Immunotech), fluorescent R-phycoerythrin-cyanin labeled
percent of population labeled [9]: 4% | percent of population labeled [10]: 81%

B1: BID: BID clone among the Sort VI clones tested in the HT29 floater assay (FIG. 10) (protein, UniProt P55957 1-195, looked up)
BH3-interacting domain death …: MDCEVNNGSSLRDECITNLLVFGFLQSCSDNSFRRELDALGHELPVLAPQWEGYDELQTDGNRSSHSRLGRIEADSESQEDIIRNIARHLAQVGDSMDRSIPPGLVNGLALQLRNTSRSEEDRNRDLATALEQLLQAYPRDMEKEKTMLVLALLLAKKVASHTPSLLRDVFHTTVNFINQNLRTYVRSLARNGMD
level of floaters relative to background [1]: increased levels of floaters that were statistically significant relative to background

B2: 0195: cytotoxic agent isolated from clone 0195, SEQ ID NO: 22 (protein)
chain: PEILSRSHLLLAGQTLIGVVAMVVEAEGEEDPWAVEAMEVVAVVVVAEEDFPVEVVAVEDSSELVTGSVLIPPVRI
level of floaters relative to background [1]: increased levels of floaters that were statistically significant relative to background
